In US20220306617A1, “SUBSTITUTED 1,3-PHENYL HETEROARYL DERIVATIVES AND THEIR USE IN THE TREATMENT OF DISEASE” (NOVARTIS AG, priority 2019, published 2022):

Biological target: T1, abc isoform of human TMEM16A channel expressed in CHO cells (Homo sapiens, UniProt Q5XXA6, DEL476-501)
T1 construct: expressed in transfected cells; host or cells: CHO cells, doxycycline-inducible expression under Blasticidin/Zeocin selection
T1 sequence (Q5XXA6 with tags, fused parts or gaps isoform Q5XXA6-5 DEL539-564): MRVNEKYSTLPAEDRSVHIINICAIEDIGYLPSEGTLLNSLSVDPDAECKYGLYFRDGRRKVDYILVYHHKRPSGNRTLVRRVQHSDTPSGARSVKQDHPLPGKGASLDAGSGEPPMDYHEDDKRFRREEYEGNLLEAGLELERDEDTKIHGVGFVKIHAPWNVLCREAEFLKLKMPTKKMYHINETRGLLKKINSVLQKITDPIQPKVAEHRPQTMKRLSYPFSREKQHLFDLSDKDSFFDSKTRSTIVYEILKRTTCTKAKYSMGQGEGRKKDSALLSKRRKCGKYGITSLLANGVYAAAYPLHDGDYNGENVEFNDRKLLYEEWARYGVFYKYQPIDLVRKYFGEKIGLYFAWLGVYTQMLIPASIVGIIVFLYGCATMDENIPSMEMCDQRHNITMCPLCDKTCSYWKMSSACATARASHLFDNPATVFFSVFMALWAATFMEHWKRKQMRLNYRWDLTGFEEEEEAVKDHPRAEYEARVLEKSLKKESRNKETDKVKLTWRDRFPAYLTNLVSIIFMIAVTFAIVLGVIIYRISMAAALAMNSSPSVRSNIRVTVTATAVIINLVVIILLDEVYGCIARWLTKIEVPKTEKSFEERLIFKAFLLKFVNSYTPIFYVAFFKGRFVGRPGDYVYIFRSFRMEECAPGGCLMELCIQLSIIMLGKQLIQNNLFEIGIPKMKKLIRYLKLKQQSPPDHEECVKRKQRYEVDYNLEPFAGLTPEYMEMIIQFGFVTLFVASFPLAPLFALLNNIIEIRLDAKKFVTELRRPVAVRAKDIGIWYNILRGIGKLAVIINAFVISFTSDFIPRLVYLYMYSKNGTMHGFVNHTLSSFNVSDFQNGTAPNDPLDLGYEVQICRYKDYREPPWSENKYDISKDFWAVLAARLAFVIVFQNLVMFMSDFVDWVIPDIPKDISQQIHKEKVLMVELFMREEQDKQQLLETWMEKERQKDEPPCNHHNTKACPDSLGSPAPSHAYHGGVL
Assay: Automated patch clamping (QPatch) assay to measure TMEM16A activity in whole-cell
Assay type: cell-based
Settings: for EC50: CHO cells expressing human TMEM16A (abc), whole-cell automated patch clamp, Hill fit, read-out: TMEM16A QPATCH assay EC50 V3 EC50; for Emax: CHO, read-out: TMEM16A QPATCH assay EC50 V3 Assay Window (% TMEM16A max activation); for Emax / TMEM16A QPATCH assay EC50 V3 Assay Window (% TMEM16A max activation): maximum current at highest dose relative to reference potentiator at maximal concentration (upper limit) and vehicle (lower limit)
Outline: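 Whole-cell currents were recorded by planar automated patch clamp from induced CHO cells (doxycycline 1 μg/mL, 18-24 h), using a −70 mV hold, +70 mV step and −90 to +70 mV ramp. Values: Hill-fitted EC50, and activation scaled between vehicle current and reference-potentiator maximum; 0.3% DMSO final.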

Row | EC50 [nM] | Emax [%] | TMEM16A QPATCH assay EC50 V3 Assay Window (% TMEM16A max activation) [%] | Structure (SMILES)
1 | 20 | 69 | – | CCOC(=O)[C@@H](NC(=O)c1cnc(-c2cccc(-c3cc(C(=O)NC(C)C(F)(F)F)[nH]n3)c2)o1)C(C)C (stereo partly drawn) [Example 3.55, (2S)-Ethyl 3-Methyl-2-(2-(3-(5-((1,1,1-Trifluoropropan-2-Yl)Carbamoyl)-1H-Pyrazol-3-Yl)Phenyl)Oxazole-5-Carboxamido)Butanoate]
2 | 70 | 119 | – | CC(C)[C@H](NC(=O)c1cnc(-c2cccc(-c3nnc(C(=O)N[C@@H](C)C4CC4)[nH]3)c2)o1)C(=O)OC(C)(C)C [Example 12.4, (S)-Tert-Butyl 2-(2-(3-(5-(((S)-1-Cyclopropylethyl)Carbamoyl)-4H-1,2,4-Triazol-3-Yl)Phenyl)Oxazole-5-Carboxamido)-3-Methylbutanoate]
3 | 440 | 175 | – | CCOC(=O)[C@@H](NC(=O)c1cc(-c2cccc(-c3ncc(C(=O)NC(CC)CC)o3)c2)nn1CCN1CCOCC1)C(C)C [Example 7.0, (S)-Ethyl 3-Methyl-2-(1-(2-Morpholinoethyl)-3-(3-(5-(Pentan-3-Ylcarbamoyl)Oxazol-2-Yl)Phenyl)-1H-Pyrazole-5-Carboxamido)Butanoate]
4 | 150 | 100 | – | CCC(CC)NC(=O)c1cnc(-c2cccc(-c3cc(C(=O)N[C@@H](C)c4ccccc4)n[nH]3)c2)o1 [Example 3.38, (S)-N-(Pentan-3-Yl)-2-(3-(3-((1-Phenylethyl)Carbamoyl)-1H-Pyrazol-5-yl)Phenyl)Oxazole-5-Carboxamide]
5 | 650 | 111 | – | CCC(CC)NC(=O)c1cnc(-c2cccc(-c3cc(C(=O)N[C@@H](CC(C)C)C(=O)NCC(=O)OC(C)(C)C)n[nH]3)c2)o1 [Example 3.57, (S)-Tert-Butyl 2-(4-Methyl-2-(5-(3-(5-(Pentan-3-Ylcarbamoyl)Oxazol-2-Yl)Phenyl)-1H-Pyrazole-3-Carboxamido)Pentanamido)Acetate]
6 | 420 | 105 | – | COC(=O)[C@@H](NC(=O)c1cnc(-c2cccc(-c3cc(C(=O)NC(C4CC4)C4CC4)n(CC(C)(C)O)n3)c2)o1)C(C)C [Example 9.4, (S)-Methyl 2-(2-(3-(5-((Dicyclopropylmethyl)Carbamoyl)-1-(2-Hydroxy-2-Methylpropyl)-1 H-Pyrazol-3-Yl)Phenyl)Oxazole-5-Carboxamido)-3-Methylbutanoate]
7 | 580 | 94 | – | CCC(CC)NC(=O)c1cc(-c2cccc(-c3ncc(C(=O)NCc4ccc(F)cc4)o3)c2)[nH]n1 [Example 1.17, N-(4-Fluorobenzyl)-2-(3-(3-(Pentan-3-Ylcarbamoyl)-1H-Pyrazol-5-yl)Phenyl)Oxazole-5-Carboxamide]
8 | 20 | 118 | – | CCC(CC)NC(=O)c1cnc(-c2cccc(-c3cc(C(=O)NC(C)(C)C4CC4)n[nH]3)c2)o1 [Example 3.7, 2-(3-(3-((2-Cyclopropylpropan-2-Yl)Carbamoyl)-1H-Pyrazol-5-Yl)Phenyl)-N-(Pentan-3-Yl)Oxazole-5-Carboxamide]
9 | 270 | 69 | – | CCC(CC)NC(=O)c1cnc(-c2cccc(-c3cc(C(=O)NCc4ccc(C5(C(F)(F)F)N=N5)cc4)n[nH]3)c2)o1 [Example 3.19, N-(Pentan-3-Yl)-2-(3-(3-((4-(3-(Trifluoromethyl)-3H-Diazirin-3-Yl)Benzyl)Carbamoyl)-1 H-Pyrazol-5-Yl)Phenyl)Oxazole-5-Carboxamide]
10 | 260 | – | 115 | CCC(CC)NC(=O)c1cnc(-c2cccc(-c3cc(C(=O)NC(C4CC4)C4CCCO4)n[nH]3)c2)o1 (single isomer, unassigned) [Example 3.4 (ii), 2-(3-(3-((Cyclopropyl(Tetrahydrofuran-2-Yl)Methyl)Carbamoyl)-1H-Pyrazol-5-Yl)Phenyl)-N-(Pentan-3-Yl)Oxazole-5-Carboxamide]
11 | 580 | 177 | – | CCC(CC)NC(=O)c1cnc(-c2cccc(-c3nnc(C(=O)N[C@@H](C)C4CC4)[nH]3)c2)o1 [Example 14.0, (S)-2-(3-(5-((1-Cyclopropylethyl)Carbamoyl)-4H-1,2,4-Triazol-3-Yl)Phenyl)-N-(Pentan-3-Yl)Oxazole-5-Carboxamide]
12 | 60 | 109 | – | CCC(CC)NC(=O)c1cnc(-c2cccc(-c3cc(C(=O)NC(C)(C)c4ccccc4)n[nH]3)c2)o1 [Example 3.54, N-(Pentan-3-Yl)-2-(3-(3-((2-Phenylpropan-2-Yl)Carbamoyl)-1H-Pyrazol-5-Yl)Phenyl)Oxazole-5-Carboxamide]
13 | 20 | 142 | – | CCOC(=O)[C@@H](NC(=O)c1cnc(-c2cccc(-c3nnc(C(=O)NC(C4CC4)C4CC4)[nH]3)c2)o1)C(C)C [Example 12.6, (S)-Ethyl 2-(2-(3-(5-((Dicyclopropylmethyl)Carbamoyl)-4H-1,2,4-Triazol-3-Yl)Phenyl)Oxazole-5-Carboxamido)-3-Methylbutanoate]
14 | 710 | – | 90 | CCC(CC)NC(=O)c1cnc(-c2cccc(-c3cc(C(=O)NC(C4CC4)C4CCCO4)n[nH]3)c2)o1 (single isomer, unassigned) [Example 3.4 (i), 2-(3-(3-((Cyclopropyl(Tetrahydrofuran-2-Yl)Methyl)Carbamoyl)-1H-Pyrazol-5-Yl)Phenyl)-N-(Pentan-3-Yl)Oxazole-5-Carboxamide]
15 | 300 | 63 | – | C[C@H](NC(=O)c1nnc(-c2cccc(-c3ncc(C(=O)N[C@@H](C)C4CC4)o3)c2)[nH]1)C1CC1 [Example 12.0, N-((S)-1-Cyclopropylethyl)-2-(3-(5-(((S)-1-Cyclopropylethyl)Carbamoyl)-4H-1,2,4-Triazol-3-Yl)Phenyl)Oxazole-5-Carboxamide]
16 | 470 | 121 | – | COC(=O)[C@@H](NC(=O)c1nc(-c2cccc(-c3ncc(C(=O)NC(C4CC4)C4CC4)o3)c2)n[nH]1)C(C)C [Example 13.7, (S)-Methyl 2-(3-(3-(5-((Dicyclopropylmethyl)Carbamoyl)Oxazol-2-Yl)Phenyl)-1H-1,2,4-Triazole-5-Carboxamido)-3-Methylbutanoate]
